# Results as given in patent publication US6204293A, “Inhibitors of protein isoprenyl transferases” (University of Pittsburgh, priority 1998, dated 2001).
# Where a name gives a salt, the structure may show the parent alone. Read-outs that look alike come from different tables or passages of the source.
# Molecular target: T1, Rat brain protein farnesyltransferase (Rattus norvegicus, UniProt Q02293+Q04631)
# T1 construct: Rat brain protein farnesyltransferase activity is measured; from tissue; host or cells: rat brain
# Assay: % inhibition of farnesylation, scintillation proximity assay with biotin-K Ras B fragment
# Format: biochemical
# Conditions: for inhibition at 1 µM: read-out: % inhibition at 1 × 10^-6 M; for % inhibition at 1 × 10^-5 M: Table 1
# How it was run: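 Rat brain enzyme, purified through three steps, in a scintillation proximity assay kit with biotin-K Ras B fragment substrate at 0.1 mM final. Value is % inhibition of farnesylation.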
# [1] = Table 6, ** footnote 0.01 μM (title: 0.01 mM)
# [2] = read-out: % inhibition at 1 × 10^-8 M
# [3] = read-out: % inhibition at 1 × 10^-7 M
# [4] = read-out: % inhibition at 0.01 μM (**), Table 6, ** footnote 0.01 μM (title: 0.01 mM)
# [5] = read-out: % inhibition at 1 × 10^-7 M, Table 3, 1 × 10^-7 M
# T1 sequence (Q02293 whole entry, one chain of several): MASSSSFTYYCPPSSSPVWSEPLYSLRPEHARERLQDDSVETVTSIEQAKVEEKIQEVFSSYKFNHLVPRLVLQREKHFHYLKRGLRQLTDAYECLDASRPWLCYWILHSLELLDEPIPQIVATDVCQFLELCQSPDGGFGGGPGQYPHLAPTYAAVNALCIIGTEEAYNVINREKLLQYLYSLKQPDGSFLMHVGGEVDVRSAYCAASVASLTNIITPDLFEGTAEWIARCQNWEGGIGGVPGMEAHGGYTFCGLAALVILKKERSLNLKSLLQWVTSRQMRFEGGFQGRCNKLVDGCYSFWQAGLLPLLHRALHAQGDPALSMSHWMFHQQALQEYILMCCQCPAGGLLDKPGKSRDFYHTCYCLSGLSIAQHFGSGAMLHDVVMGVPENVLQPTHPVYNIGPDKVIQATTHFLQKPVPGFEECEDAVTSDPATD
compound,measurement,setting,value
CSCC[C@H](NC(=O)c1ccc(CN(CCC2CCCCC2)C(=O)c2ccccc2)cc1-c1ccccc1C)C(=O)O [Example 762],% inhibition at 1 × 10^-8 M,"Table 4, 1 × 10^-8 M",84%
"CSCC[C@H](NC(=O)c1ccc(CS[C@H](CO)Cc2ccccc2)cc1-c1ccccc1)C(=O)O [Example 545, N-[4-(3-phenylpropan-1-ol-2-ylthiomethyl)-2-phenylbenzoyl]methionine, sodium salt]",inhibition at 1 µM,"Table 2, 1 × 10^-6 M",88%
CSCC[C@H](NC(=O)c1ccc(CN2CCC(OCc3ccccc3)C2)cc1-c1ccccc1C)C(=O)O (some centres unmarked) [Example 988],% inhibition at 1 × 10^-6 M,"Table 2, 1 × 10^-6 M",92%
CSCC[C@H](NC(=O)c1ccc(/C=C/CC(O)c2ccc3ccccc3c2)cc1-c1ccccc1C)C(=O)O (some centres unmarked) [Example 474],% inhibition at 1 × 10^-6 M,"Table 2, 1 × 10^-6 M",92%
CSCC[C@H](NC(=O)c1ccc(CN(CCF)CCC2CCCCC2)cc1-c1ccccc1C)C(=O)O [Example 1094],% inhibition at 0.01 μM (**),[1],96%
CSCC[C@H](NC(=O)c1ccc(CNc2ccccc2F)cc1-c1ccccc1)C(=O)O [Example 642],% inhibition at 1 × 10^-6 M,"Table 2, 1 × 10^-6 M",48%
CSCC[C@H](NC(=O)c1ccc(NC[C@@H]2CSCN2)cc1-c1ccccc1)C(=O)O.Cl [Example 166],% inhibition at 1 × 10^-6 M,"Table 2, 1 × 10^-6 M",97%
CSCC[C@H](NC(=O)c1ccc(CNc2ccc(C(=O)c3ccccc3)cc2)cc1-c1ccccc1)C(=O)O [Example 702],% inhibition at 1 × 10^-5 M,,79%
"CSCC[C@H](NC(=O)c1ccc(COCc2cnc(-c3ccc(Cl)cc3)s2)cc1-c1ccccc1C)C(=O)O [Example 901, N-[4-(2-(4-chlorophenyl)thiazol-5-ylmethoxymethyl)-2-(2-methylphenyl)benzoyl]methionine lithium salt]",inhibition at 0.01 µM,[2],84%
CSCC[C@H](NC(=O)c1ccc(CN(CCC2CCCCC2)C(=O)N(C)C)cc1-c1ccccc1C)C(=O)O [Example 610],% inhibition at 1 × 10^-6 M,"Table 2, 1 × 10^-6 M",94%
CSCC[C@H](NC(=O)c1ccc(CNc2ccc(Oc3ccccc3)cc2)cc1-c1ccccc1C)C(=O)O [Example 864],% inhibition at 1 × 10^-7 M,"Table 3, 1 × 10^-7 M",84%
CCCCN(C)N(CCC1CCCCC1)Cc1ccc(C(=O)N[C@@H](CCS(C)(=O)=O)C(=O)O)c(-c2ccccc2C)c1 [Example 300],% inhibition at 1 × 10^-6 M,"Table 2, 1 × 10^-6 M",22%
CSCC[C@H](NC(=O)c1ccc(CNCC(=O)N(Cc2ccccc2)Cc2ccccc2)cc1-c1ccccc1C)C(=O)O [Example 914],% inhibition at 1 × 10^-7 M,"Table 3, 1 × 10^-7 M",91%
CSCC[C@H](NC(=O)c1ccc(CNc2cc(C(C)(C)C)[nH]n2)cc1-c1ccccc1)C(=O)O [Example 381],% inhibition at 1 × 10^-5 M,,79%
"CSCC[C@H](NC(=O)c1ccc(COCCc2ccc(Cl)cc2)cc1-c1ccccc1C)C(=O)O [Example 590, N-[4-(2-(4-chlorophenyl)ethoxymethyl)-2-(2-methylphenyl)benzoyl]methionine lithium salt]",inhibition at 0.1 µM,[3],95%
CSCC[C@H](NC(=O)c1ccc(CN(C)CC(O)CO)cc1-c1ccccc1C)C(=O)O (some centres unmarked) [Example 719],% inhibition at 1 × 10^-6 M,"Table 2, 1 × 10^-6 M",90%
CSCC[C@H](NC(=O)c1ccc(/C=C/c2cnc(Oc3ccccc3)cn2)cc1-c1ccccc1C)C(=O)O [Example 812],% inhibition at 1 × 10^-6 M,"Table 2, 1 × 10^-6 M",94%
"CSCC[C@H](NC(=O)c1ccc(CO[C@H](CSC(C)(C)C)CC2CCCCC2)cc1-c1ccccc1C)C(=O)O [Example 883, N-[4-(3-Cyclohexyl-1-t-butylthiopropan-2-yl)oxymethyl-2-(2-methylphenyl)benzoyl]methionine lithium salt]",inhibition at 0.01 µM,"read-out: % inhibition at 1 × 10^-8 M, Table 4, 1 × 10^-8 M",91%
CCCCS(=O)(=O)N(CCCc1ccccc1)Cc1ccc(C(=O)N[C@@H](CCSC)C(=O)O)c(-c2ccccc2C)c1 [Example 927],% inhibition at 1 × 10^-8 M,"Table 4, 1 × 10^-8 M",74%
CSCC[C@H](NC(=O)c1ccc(CN(Cc2ccccc2)c2ccc(Cl)cc2)cc1-c1ccccc1C)C(=O)O [Example 848],% inhibition at 1 × 10^-8 M,"Table 4, 1 × 10^-8 M",87%
"COc1ccc(CO[C@H](COCc2ccc(C(=O)N[C@@H](CCSC)C(=O)O)c(-c3ccccc3C)c2)CC2CCCCC2)cc1 [Example 1316, N-[4-(3-Cyclohexyl-2-(4-methoxybenzyloxy)prop-1-yloxymethyl)-2-(2-methylphenyl)benzoyl]methionine Lithium Salt]",inhibition at 0.1 µM,"read-out: % inhibition at 0.1 μM (*), Table 6, * footnote 0.1 μM (title: 0.1 mM)",78%
COc1cccc(CN(Cc2ccc(C(=O)N[C@@H](CCSC)C(=O)O)c(-c3ccccc3C)c2)c2ccccc2)c1 [Example 779],% inhibition at 1 × 10^-8 M,"Table 4, 1 × 10^-8 M",70%
"CCCCC(OCc1ccc(C(=O)N[C@@H](CCSC)C(=O)O)c(-c2ccccc2C)c1)c1cccc(Cl)c1 (some centres unmarked) [Example 1206, N-[4-(1-(3-chlorophenyl)pentan-1-yloxymethyl)-2-(2-methylphenyl)benzoyl]methionine lithium salt]",inhibition at 0.01 µM,read-out: % inhibition at 0.01 μM (**),63%
CSCC[C@H](NC(=O)c1ccc(CNc2ccccc2Oc2ccccc2)cc1-c1ccccc1)C(=O)O [Example 645],% inhibition at 1 × 10^-6 M,"Table 2, 1 × 10^-6 M",37%
"CSCC[C@H](NC(=O)c1ccc(COCc2cnc(-c3cccc(Cl)c3)s2)cc1-c1ccccc1C)C(=O)O [Example 899, N-[4-(2-(3-chlorophenyl)thiazol-5-ylmethoxymethyl)-2-(2-methylphenyl)benzoyl]methionine lithium salt]",inhibition at 0.01 µM,[2],88%
"COCCOCOC[C@H](CC1CCCCC1)OCc1ccc(C(=O)N[C@@H](CCSC)C(=O)O)c(-c2ccccc2C)c1 [Example 1050, N-[4-(3-cyclohexyl-1-(2-methoxyethoxymethyleneoxy)prop-2-yloxymethyl)-2-(2-methylphenyl)benzoyl]methionine, lithium salt]",inhibition at 0.01 µM,[4],62%
CSCC[C@H](NC(=O)c1ccc(CN2CCC[C@@H]2COCc2ccccc2)cc1-c1ccccc1C)C(=O)O [Example 993],% inhibition at 1 × 10^-7 M,"Table 3, 1 × 10^-7 M",90%
"CSCC[C@H](NC(=O)c1ccc(OCCCC2CCCCC2)cc1-c1ccccc1C)C(=O)O [Example 564, N-[4-(3-cyclohexylpropoxy)-2-(2-methylphenylbenzoyl]methionine, lithium salt]",inhibition at 1 µM,"Table 2, 1 × 10^-6 M",98%
CSCC[C@H](NC(=O)c1ccc(CNC(C)(C)CC2CCCCC2)cc1-c1ccccc1C)C(=O)O [Example 308],% inhibition at 1 × 10^-6 M,"Table 2, 1 × 10^-6 M",62%
CCSCC(CC1CCCCC1)NCc1cc(-c2ccccc2C)c(C(=O)N[C@@H](CCSC)C(=O)O)cc1OC (some centres unmarked) [Example 1337],% inhibition at 0.01 μM (**),[1],83%
CSCC[C@H](NC(=O)c1ccc(CSc2nc(C)cc(C)n2)cc1-c1ccccc1C)C(=O)O [Example 743],inhibition at 0.1 µM,[5],51%
CSCC[C@H](NC(=O)c1ccc(CN(C(CC2CCCCC2)CC2CCCCC2)S(=O)(=O)c2ccccc2)cc1-c1ccccc1C)C(=O)O [Example 911],% inhibition at 1 × 10^-6 M,"Table 2, 1 × 10^-6 M",65%
"CSCC[C@H](NC(=O)c1ccc(COCc2cccs2)cc1-c1ccccc1C)C(=O)O [Example 273, [4-(2-thienylmethoxymethyl)-2-(2-methylphenyl)benzoyl]methionine Lithium salt]",inhibition at 1 µM,,96%
CSCC[C@H](NC(=O)c1ccc(CNC(CC2CCCCC2)CC2CCCCC2)cc1-c1ccccc1C)C(=O)O [Example 524],% inhibition at 1 × 10^-7 M,"Table 3, 1 × 10^-7 M",99%
CSCC[C@H](NC(=O)c1ccc(CNc2ccc(F)cc2)cc1-c1ccccc1)C(=O)O [Example 687],% inhibition at 1 × 10^-5 M,,78%
"COC[C@H](CC1CCCCC1)OCc1ccc(C(=O)N[C@@H](CCSC)C(=O)O)c(-c2ccccc2C)c1 [Example 1304, N-[4-(3-Cyclohexyl-1-methoxyprop-2-yloxymethyl)-2-(2-methylphenyl)benzoyl]methionine Lithium Salt]",inhibition at 0.01 µM,[4],90%
CCCCN(CCN1CCCCC1)Cc1ccc(C(=O)N[C@@H](CCSC)C(=O)O)c(-c2ccccc2C)c1 [Example 1196],% inhibition at 0.1 μM (*),"Table 6, * footnote 0.1 μM (title: 0.1 mM)",87%
CSCC[C@H](NC(=O)c1ccc(CN(CCC23CC4CC(CC(C4)C2)C3)c2ccccc2)cc1-c1ccccc1C)C(=O)O [Example 511],% inhibition at 1 × 10^-7 M,"Table 3, 1 × 10^-7 M",82%
CSCC[C@H](NC(=O)c1ccc(CN(CC(C)C)C(CC2CCCCC2)CC2CCCCC2)cc1-c1ccccc1C)C(=O)O [Example 908],% inhibition at 1 × 10^-6 M,"Table 2, 1 × 10^-6 M",88%
CSCC[C@H](NC(=O)c1ccc(CSc2ccc(F)cc2)cc1-c1ccccc1C)C(=O)O [Example 740],inhibition at 0.1 µM,[5],94%
"CSCC[C@H](NC(=O)c1ccc(COCc2ccc(Br)o2)cc1-c1ccccc1C)C(=O)O [Example 434, N-[4-(5-Bromofuran-2-ylmethoxymethyl)-2-(2-methylphenyl)benzoyl]methionine lithium salt]",inhibition at 0.1 µM,[3],93%
CSCC[C@H](NC(=O)c1ccc(CNC(CC2CCCCC2)C2CCCCC2)cc1-c1ccccc1C)C(=O)[O-].[Li+] (some centres unmarked) [Example 616],% inhibition at 1 × 10^-7 M,"Table 3, 1 × 10^-7 M",95%
CSCC[C@H](NC(=O)c1ccc(CN(Cc2ccc(Cl)cc2)c2ccccc2)cc1-c1ccccc1C)C(=O)O [Example 781],% inhibition at 1 × 10^-7 M,"Table 3, 1 × 10^-7 M",91%
CSCC[C@H](NC(=O)c1ccc(CCc2ccc(Oc3ccccc3Cl)cc2)cc1-c1ccccc1C)C(=O)O [Example 855],% inhibition at 1 × 10^-7 M,"Table 3, 1 × 10^-7 M",92%
